# From patent US20260130395A1, “Water Dispersible Botanical Compositions” (Aquila Black Limited, priority 2021, published 2026)
# Assay: Stability of cannabinoid compounds and Vitamin E components in Beverage 2 (AB Red) by LCMSMS
# Format: physicochemical
smiles,measurement,setting,value
"CCCCCc1cc(O)c(C/C=C(\C)CCC=C(C)C)c(O)c1 [CBG, cannabigerol]",Stability of Plant-Derived Cannabinoid Compounds in AB Red,"stored at 8° C., 0 days",4.75 µg/mL
same,Stability of Plant-Derived Cannabinoid Compounds in AB Red,"stored at 8° C., 1 days",4.62 µg/mL
same,Stability of Plant-Derived Cannabinoid Compounds in AB Red,"stored at 8° C., 2 days",4.79 µg/mL
same,Stability of Plant-Derived Cannabinoid Compounds in AB Red,"stored at 8° C., 3 days",4.70 µg/mL
same,Stability of Plant-Derived Cannabinoid Compounds in AB Red,"stored at 8° C., 5 days",4.75 µg/mL
same,Stability of Plant-Derived Cannabinoid Compounds in AB Red,"stored at 8° C., 8 days",4.76 µg/mL
same,Stability of Plant-Derived Cannabinoid Compounds in AB Red,"stored at 8° C., 9 days",4.72 µg/mL
same,Stability of Plant-Derived Cannabinoid Compounds in AB Red,"stored at 8° C., 10 days",4.68 µg/mL
same,Stability of Plant-Derived Cannabinoid Compounds in AB Red,"stored at 8° C., 11 days",4.77 µg/mL
same,Stability of Plant-Derived Cannabinoid Compounds in AB Red,"stored at 8° C., 12 days",4.64 µg/mL
same,Stability of Plant-Derived Cannabinoid Compounds in AB Red,"stored at 8° C., 15 days",4.68 µg/mL
same,Stability of Plant-Derived Cannabinoid Compounds in AB Red,"stored at 8° C., 16 days",4.65 µg/mL
same,Stability of Plant-Derived Cannabinoid Compounds in AB Red,"stored at 8° C., 17 days",4.77 µg/mL
same,Stability of Plant-Derived Cannabinoid Compounds in AB Red,"stored at 8° C., 18 days",4.67 µg/mL
same,Stability of Plant-Derived Cannabinoid Compounds in AB Red,"stored at 8° C., 19 days",4.71 µg/mL
same,Stability of Plant-Derived Cannabinoid Compounds in AB Red,"stored at 8° C., 22 days",4.70 µg/mL
same,Stability of Plant-Derived Cannabinoid Compounds in AB Red,"stored at 8° C., 23 days",4.66 µg/mL
same,Stability of Plant-Derived Cannabinoid Compounds in AB Red,"stored at 8° C., 24 days",4.65 µg/mL
same,Stability of Plant-Derived Cannabinoid Compounds in AB Red,"stored at 8° C., 25 days",4.73 µg/mL
same,Stability of Plant-Derived Cannabinoid Compounds in AB Red,"stored at 8° C., 26 days",4.68 µg/mL
same,Stability of Plant-Derived Cannabinoid Compounds in AB Red,"stored at 8° C., 29 days",4.80 µg/mL
same,Stability of Plant-Derived Cannabinoid Compounds in AB Red,"stored at 8° C., 30 days",4.72 µg/mL
same,Stability of Plant-Derived Cannabinoid Compounds in AB Red,"stored at 8° C., 60 days",4.70 µg/mL
same,Stability of Plant-Derived Cannabinoid Compounds in AB Red,"stored at 8° C., 90 days",4.73 µg/mL
same,Stability of Plant-Derived Cannabinoid Compounds in AB Red,"stored at 8° C., 120 days",4.68 µg/mL
same,Stability of Plant-Derived Cannabinoid Compounds in AB Red,"stored at 8° C., 150 days",4.67 µg/mL
same,Stability of Plant-Derived Cannabinoid Compounds in AB Red,"stored at 8° C., 180 days",4.65 µg/mL
same,Stability of Plant-Derived Cannabinoid Compounds in AB Red,"stored at 8° C., 210 days",4.60 µg/mL
same,Stability of Plant-Derived Cannabinoid Compounds in AB Red,"stored at 8° C., 240 days",4.68 µg/mL
same,Stability of Plant-Derived Cannabinoid Compounds in AB Red,"stored at 8° C., 270 days",4.66 µg/mL
same,Stability of Plant-Derived Cannabinoid Compounds in AB Red,"stored at 8° C., 300 days",4.70 µg/mL
same,Stability of Plant-Derived Cannabinoid Compounds in AB Red,"stored at 8° C., 330 days",4.60 µg/mL
same,Stability of Plant-Derived Cannabinoid Compounds in AB Red,"stored at 8° C., 360 days",4.63 µg/mL
same,Stability of Plant-Derived Cannabinoid Compounds in AB Red,"stored at 8° C., 390 days",4.55 µg/mL
same,Stability of Plant-Derived Cannabinoid Compounds in AB Red,"stored at 8° C., 420 days",4.58 µg/mL
same,Stability of Plant-Derived Cannabinoid Compounds in AB Red,"stored at 8° C., 450 days",4.54 µg/mL
same,Stability of Plant-Derived Cannabinoid Compounds in AB Red,"stored at 8° C., 480 days",4.51 µg/mL
same,Stability of Plant-Derived Cannabinoid Compounds in AB Red,"stored at 8° C., 510 days",4.40 µg/mL
same,Stability of Plant-Derived Cannabinoid Compounds in AB Red,"stored at 8° C., 540 days",4.42 µg/mL
same,Stability of Plant-Derived Cannabinoid Compounds in AB Red,"stored at 8° C., 570 days",4.37 µg/mL
same,Stability of Plant-Derived Cannabinoid Compounds in AB Red,"stored at 21-25° C., 0 days",4.75 µg/mL
same,Stability of Plant-Derived Cannabinoid Compounds in AB Red,"stored at 21-25° C., 1 days",4.57 µg/mL
same,Stability of Plant-Derived Cannabinoid Compounds in AB Red,"stored at 21-25° C., 2 days",4.61 µg/mL
same,Stability of Plant-Derived Cannabinoid Compounds in AB Red,"stored at 21-25° C., 3 days",4.71 µg/mL
same,Stability of Plant-Derived Cannabinoid Compounds in AB Red,"stored at 21-25° C., 5 days",4.66 µg/mL
same,Stability of Plant-Derived Cannabinoid Compounds in AB Red,"stored at 21-25° C., 8 days",4.66 µg/mL
same,Stability of Plant-Derived Cannabinoid Compounds in AB Red,"stored at 21-25° C., 9 days",4.74 µg/mL
same,Stability of Plant-Derived Cannabinoid Compounds in AB Red,"stored at 21-25° C., 10 days",4.59 µg/mL
same,Stability of Plant-Derived Cannabinoid Compounds in AB Red,"stored at 21-25° C., 11 days",4.72 µg/mL
same,Stability of Plant-Derived Cannabinoid Compounds in AB Red,"stored at 21-25° C., 12 days",4.62 µg/mL
same,Stability of Plant-Derived Cannabinoid Compounds in AB Red,"stored at 21-25° C., 15 days",4.80 µg/mL
same,Stability of Plant-Derived Cannabinoid Compounds in AB Red,"stored at 21-25° C., 16 days",4.75 µg/mL
same,Stability of Plant-Derived Cannabinoid Compounds in AB Red,"stored at 21-25° C., 17 days",4.63 µg/mL
same,Stability of Plant-Derived Cannabinoid Compounds in AB Red,"stored at 21-25° C., 18 days",4.70 µg/mL
same,Stability of Plant-Derived Cannabinoid Compounds in AB Red,"stored at 21-25° C., 19 days",4.66 µg/mL
same,Stability of Plant-Derived Cannabinoid Compounds in AB Red,"stored at 21-25° C., 22 days",4.71 µg/mL
same,Stability of Plant-Derived Cannabinoid Compounds in AB Red,"stored at 21-25° C., 23 days",4.67 µg/mL
same,Stability of Plant-Derived Cannabinoid Compounds in AB Red,"stored at 21-25° C., 24 days",4.78 µg/mL
same,Stability of Plant-Derived Cannabinoid Compounds in AB Red,"stored at 21-25° C., 25 days",4.56 µg/mL
same,Stability of Plant-Derived Cannabinoid Compounds in AB Red,"stored at 21-25° C., 26 days",4.77 µg/mL
same,Stability of Plant-Derived Cannabinoid Compounds in AB Red,"stored at 21-25° C., 29 days",4.78 µg/mL
same,Stability of Plant-Derived Cannabinoid Compounds in AB Red,"stored at 21-25° C., 30 days",4.73 µg/mL
same,Stability of Plant-Derived Cannabinoid Compounds in AB Red,"stored at 21-25° C., 60 days",4.61 µg/mL
same,Stability of Plant-Derived Cannabinoid Compounds in AB Red,"stored at 21-25° C., 90 days",4.55 µg/mL
same,Stability of Plant-Derived Cannabinoid Compounds in AB Red,"stored at 21-25° C., 120 days",4.61 µg/mL
same,Stability of Plant-Derived Cannabinoid Compounds in AB Red,"stored at 21-25° C., 150 days",4.65 µg/mL
same,Stability of Plant-Derived Cannabinoid Compounds in AB Red,"stored at 21-25° C., 180 days",4.53 µg/mL
same,Stability of Plant-Derived Cannabinoid Compounds in AB Red,"stored at 21-25° C., 210 days",4.63 µg/mL
same,Stability of Plant-Derived Cannabinoid Compounds in AB Red,"stored at 21-25° C., 240 days",4.56 µg/mL
same,Stability of Plant-Derived Cannabinoid Compounds in AB Red,"stored at 21-25° C., 270 days",4.68 µg/mL
same,Stability of Plant-Derived Cannabinoid Compounds in AB Red,"stored at 21-25° C., 300 days",4.47 µg/mL
same,Stability of Plant-Derived Cannabinoid Compounds in AB Red,"stored at 21-25° C., 330 days",4.57 µg/mL
same,Stability of Plant-Derived Cannabinoid Compounds in AB Red,"stored at 21-25° C., 360 days",4.47 µg/mL
same,Stability of Plant-Derived Cannabinoid Compounds in AB Red,"stored at 21-25° C., 390 days",4.57 µg/mL
same,Stability of Plant-Derived Cannabinoid Compounds in AB Red,"stored at 21-25° C., 420 days",4.51 µg/mL
same,Stability of Plant-Derived Cannabinoid Compounds in AB Red,"stored at 21-25° C., 450 days",4.63 µg/mL
same,Stability of Plant-Derived Cannabinoid Compounds in AB Red,"stored at 21-25° C., 480 days",4.44 µg/mL
same,Stability of Plant-Derived Cannabinoid Compounds in AB Red,"stored at 21-25° C., 510 days",4.37 µg/mL
same,Stability of Plant-Derived Cannabinoid Compounds in AB Red,"stored at 21-25° C., 540 days",4.49 µg/mL
same,Stability of Plant-Derived Cannabinoid Compounds in AB Red,"stored at 21-25° C., 570 days",4.36 µg/mL
